Test [1] deals with T1, MYT1 protein (Homo sapiens (Human), UniProt Q99640). Briefly: Test for binding to ATP binding site of MYT1 (Kinase Tracer 178 / Eu-Anti-GST antibody TR-FRET). The conditions noted are these: ATP binding site of MYT1, 30 minutes at room temperature. (In general: TR-FRET usually uses a lanthanide donor and a delayed reading to cut background.)
For test [2], the system named is LU65. Briefly: Cytotoxicity test with pemetrexed upon addition of each example compound (CellTiter-Glo). The test is classed as cell-based, human. The note with it: combination with pemetrexed, LU65 cells, 7 days; maximum value, at the MYT1 inhibitor and pemetrexed concentrations. Put shortly: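 LU65 lung cancer cells (RB1 S82* truncation, reduced RB1 function) in RPMI-1640/10% FBS were treated with pemetrexed plus each compound over concentration series, 7 days at 37 °C. ATP measured by CellTiter-Glo luminescence; survival relative to DMSO after blank subtraction, cytotoxicity = 100% minus survival.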
(In general: Cellular ATP, detected with luciferase, serves as a proxy for viable cell number.)

Test [3] addresses T1, MYT1 protein. Briefly: MYT1 kinase activity inhibition test (ELISA, phosphorylation of Y15 of CDK1). Type of test: biochemical. The conditions noted are these: phosphorylation level of Y15 of CDK1 protein caused by MYT1 protein, 60 minutes. Put shortly:
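Recombinant human MYT1 (5 nM working solution) was incubated 60 min at room temperature with compound and ATP (83.3 μM working solution) on a CDK1-coated ELISA plate. CDK1 Y15 phosphorylation was detected with HRP anti-phosphotyrosine, read as A450 minus A590. Inhibition was normalised to no-compound (100%) and no-enzyme (0%) signals to derive IC50.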
In general terms: ELISA stands for enzyme-linked immunosorbent assay.

Usually pIC50 stands for −log10 of the IC50, conventionally taken in molar units. Read a high pIC50 as a low IC50.

pIC50: −log10 of the molar value.

T1 sequence (Q99640 whole entry, the tested form may be a part): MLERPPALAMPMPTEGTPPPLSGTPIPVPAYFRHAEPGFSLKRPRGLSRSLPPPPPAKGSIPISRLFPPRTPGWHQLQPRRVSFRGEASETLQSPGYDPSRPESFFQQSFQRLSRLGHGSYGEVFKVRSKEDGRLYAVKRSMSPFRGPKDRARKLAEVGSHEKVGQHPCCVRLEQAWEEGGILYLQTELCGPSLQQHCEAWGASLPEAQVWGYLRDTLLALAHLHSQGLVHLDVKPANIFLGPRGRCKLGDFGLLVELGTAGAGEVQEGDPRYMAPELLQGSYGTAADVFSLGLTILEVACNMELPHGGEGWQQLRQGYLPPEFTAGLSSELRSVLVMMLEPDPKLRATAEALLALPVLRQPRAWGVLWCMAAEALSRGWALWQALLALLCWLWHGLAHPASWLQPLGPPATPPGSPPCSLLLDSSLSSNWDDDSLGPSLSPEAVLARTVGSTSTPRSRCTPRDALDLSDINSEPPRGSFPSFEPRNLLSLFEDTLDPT

As to `Nc1c(-c2ccc(F)c3[nH]ncc23)c2cc(C3CC3)c3cccnc3c2[nH]c1=O` [Compound D2, 3-Amino-6-cyclopropyl-4-(7-fluoro-1H-indazol-4-yl)-1H-1,10-phenanthrolin-2-one], the figures for the pIC50 in test [1] and in test [3] were 8.40 and 7.82, respectively. Further, the “Bliss Score (Max)” value in test [2] is recorded as 42%. In test [2], the “HSA Score (MAX)” value was 51%.

In test [1], `Nc1c(-c2ccc(F)c3[nH]ncc23)c2cc(O[C@H]3C[C@H](F)C3)c3nccnc3c2[nH]c1=O` [Compound G16, 8-Amino-5-((1,3r)-3-fluorocyclobutyl)oxy-7-(7-fluoro-1H-indazol-4-yl)-10H-pyrido[2,3-f]quinoxalin-9-one] had a negative-log IC50 (pIC50) of 9.04. In test [2], the “Bliss Score (Max)” value worked out at 50% and the “HSA Score (MAX)” value is 58%. Besides, the pIC50 in test [3] was 10.07.

Consider `Nc1c(-c2cccc3[nH]ncc23)c2cc(C3CC3)c3cnccc3c2[nH]c1=O` [Compound P1, 3-Amino-6-cyclopropyl-4-(1H-indazol-4-yl)-1H-1,8-phenanthrolin-2-one], for which the pIC50 in test [1] was 8.74. In addition, in test [2], the “Bliss Score (Max)” value was found to be 49% and the “HSA Score (MAX)” value was determined as 55%. This compound gave a negative-log IC50 (pIC50) in test [3] of 9.66.

In the case of `Nc1c(-c2ccc(F)c3[nH]ncc23)c2cc(C3CC3)c3cnccc3c2[nH]c1=O.O=C(O)C(F)(F)F` [Compound P4, 3-Amino-6-cyclopropyl-4-(7-fluoro-1H-indazol-4-yl)-1H-1,8-phenanthrolin-2-one 2,2,2-trifluoroacetate], the pIC50 in test [1] is 8.21; in test [3] it was 8.23. The “Bliss Score (Max)” value in test [2] came to 56%. In addition, in test [2], the “HSA Score (MAX)” value is given as 67%.

As for `Nc1c(-c2cccc3[nH]ncc23)c2cc(C3CC3)c3ccncc3c2[nH]c1=O` [Compound Q1, 3-Amino-6-cyclopropyl-4-(1H-indazol-4-yl)-1H-1,9-phenanthrolin-2-one], the negative-log IC50 (pIC50) in test [1] was 8.03; in test [3], 9.08. Further, the “Bliss Score (Max)” value in test [2] amounted to 52%. Also, in test [2], the “HSA Score (MAX)” value stood at 58%.

(Values after patent publication US20260062412A1, “NITROGEN-CONTAINING HETEROCYCLIC COMPOUND HAVING MYT1 INHIBITORY ACTIVITY” (CHUGAI SEIYAKU KABUSHIKI KAISHA, priority 2023, published 2026).)
